Structures are written as SMILES.

The values that follow come from ChEMBL document CHEMBL4354881, “Optimization of Potent ATAD2 and CECR2 Bromodomain Inhibitors with an Atypical Binding Mode” (J Med Chem, 2020).

Assay [1] addresses Bromodomain-containing protein 4 (Homo sapiens, UniProt O60885). As to the kind of experiment: Displacement of Alexa Fluor 647-labeled ligand from BRD4 BD2 (unknown origin) measured after 30 mins by TR-FRET assay. On the technique in general: Time-resolved FRET reads energy transfer from a long-lived donor to a nearby acceptor.
Assay [2] concerns the target T1, Chromatin remodeling regulator CECR2 (Homo sapiens, UniProt Q9BXF3). As to the kind of experiment: Displacement of Alexa Fluor 647-labeled GSK tracer from FLAG-6His-Tev-fused CECR2 (424 to 543 residue) (unknown origin) measured after 15 mins by TR-FRET assay.
Assay [3] deals with Histone acetyltransferase KAT2A (Homo sapiens, UniProt Q92830). As to the kind of experiment: Binding affinity to human partial length GCN5L2 (E726 to K837 residues) expressed in bacterial expression system by BROMOscan assay.
Histone acetyltransferase KAT2A, sequence (Q92830 whole entry, the tested form may be a part): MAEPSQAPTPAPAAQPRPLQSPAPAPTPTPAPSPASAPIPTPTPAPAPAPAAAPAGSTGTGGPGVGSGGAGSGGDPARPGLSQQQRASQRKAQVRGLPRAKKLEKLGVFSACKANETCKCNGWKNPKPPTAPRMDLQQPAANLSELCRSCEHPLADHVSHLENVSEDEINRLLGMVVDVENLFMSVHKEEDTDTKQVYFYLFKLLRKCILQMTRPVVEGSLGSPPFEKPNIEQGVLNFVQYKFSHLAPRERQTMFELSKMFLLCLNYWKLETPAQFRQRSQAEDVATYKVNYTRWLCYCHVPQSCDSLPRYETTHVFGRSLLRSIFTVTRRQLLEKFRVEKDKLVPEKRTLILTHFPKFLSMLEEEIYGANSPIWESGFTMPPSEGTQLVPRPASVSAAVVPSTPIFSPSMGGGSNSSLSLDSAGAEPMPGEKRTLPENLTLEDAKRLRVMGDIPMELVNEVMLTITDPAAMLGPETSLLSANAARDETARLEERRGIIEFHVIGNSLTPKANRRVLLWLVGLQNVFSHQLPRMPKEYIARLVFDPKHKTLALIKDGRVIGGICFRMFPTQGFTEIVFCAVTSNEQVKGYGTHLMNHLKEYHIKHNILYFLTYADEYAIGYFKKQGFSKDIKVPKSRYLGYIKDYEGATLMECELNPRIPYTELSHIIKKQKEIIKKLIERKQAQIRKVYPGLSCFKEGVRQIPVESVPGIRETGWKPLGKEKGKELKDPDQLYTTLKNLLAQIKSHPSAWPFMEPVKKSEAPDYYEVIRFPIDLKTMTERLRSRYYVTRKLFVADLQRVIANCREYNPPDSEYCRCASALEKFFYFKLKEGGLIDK
The target in assay [4] is Transcription initiation factor TFIID subunit 1-like (Homo sapiens, UniProt Q8IZX4). As to the kind of experiment: Binding affinity to human partial length TAF1L bromodomain 2 (Q1523 to D1654 residues) expressed in bacterial expression system by BROMOscan assay.
Transcription initiation factor TFIID subunit 1-like, sequence (Q8IZX4 whole entry, the tested form may be a part): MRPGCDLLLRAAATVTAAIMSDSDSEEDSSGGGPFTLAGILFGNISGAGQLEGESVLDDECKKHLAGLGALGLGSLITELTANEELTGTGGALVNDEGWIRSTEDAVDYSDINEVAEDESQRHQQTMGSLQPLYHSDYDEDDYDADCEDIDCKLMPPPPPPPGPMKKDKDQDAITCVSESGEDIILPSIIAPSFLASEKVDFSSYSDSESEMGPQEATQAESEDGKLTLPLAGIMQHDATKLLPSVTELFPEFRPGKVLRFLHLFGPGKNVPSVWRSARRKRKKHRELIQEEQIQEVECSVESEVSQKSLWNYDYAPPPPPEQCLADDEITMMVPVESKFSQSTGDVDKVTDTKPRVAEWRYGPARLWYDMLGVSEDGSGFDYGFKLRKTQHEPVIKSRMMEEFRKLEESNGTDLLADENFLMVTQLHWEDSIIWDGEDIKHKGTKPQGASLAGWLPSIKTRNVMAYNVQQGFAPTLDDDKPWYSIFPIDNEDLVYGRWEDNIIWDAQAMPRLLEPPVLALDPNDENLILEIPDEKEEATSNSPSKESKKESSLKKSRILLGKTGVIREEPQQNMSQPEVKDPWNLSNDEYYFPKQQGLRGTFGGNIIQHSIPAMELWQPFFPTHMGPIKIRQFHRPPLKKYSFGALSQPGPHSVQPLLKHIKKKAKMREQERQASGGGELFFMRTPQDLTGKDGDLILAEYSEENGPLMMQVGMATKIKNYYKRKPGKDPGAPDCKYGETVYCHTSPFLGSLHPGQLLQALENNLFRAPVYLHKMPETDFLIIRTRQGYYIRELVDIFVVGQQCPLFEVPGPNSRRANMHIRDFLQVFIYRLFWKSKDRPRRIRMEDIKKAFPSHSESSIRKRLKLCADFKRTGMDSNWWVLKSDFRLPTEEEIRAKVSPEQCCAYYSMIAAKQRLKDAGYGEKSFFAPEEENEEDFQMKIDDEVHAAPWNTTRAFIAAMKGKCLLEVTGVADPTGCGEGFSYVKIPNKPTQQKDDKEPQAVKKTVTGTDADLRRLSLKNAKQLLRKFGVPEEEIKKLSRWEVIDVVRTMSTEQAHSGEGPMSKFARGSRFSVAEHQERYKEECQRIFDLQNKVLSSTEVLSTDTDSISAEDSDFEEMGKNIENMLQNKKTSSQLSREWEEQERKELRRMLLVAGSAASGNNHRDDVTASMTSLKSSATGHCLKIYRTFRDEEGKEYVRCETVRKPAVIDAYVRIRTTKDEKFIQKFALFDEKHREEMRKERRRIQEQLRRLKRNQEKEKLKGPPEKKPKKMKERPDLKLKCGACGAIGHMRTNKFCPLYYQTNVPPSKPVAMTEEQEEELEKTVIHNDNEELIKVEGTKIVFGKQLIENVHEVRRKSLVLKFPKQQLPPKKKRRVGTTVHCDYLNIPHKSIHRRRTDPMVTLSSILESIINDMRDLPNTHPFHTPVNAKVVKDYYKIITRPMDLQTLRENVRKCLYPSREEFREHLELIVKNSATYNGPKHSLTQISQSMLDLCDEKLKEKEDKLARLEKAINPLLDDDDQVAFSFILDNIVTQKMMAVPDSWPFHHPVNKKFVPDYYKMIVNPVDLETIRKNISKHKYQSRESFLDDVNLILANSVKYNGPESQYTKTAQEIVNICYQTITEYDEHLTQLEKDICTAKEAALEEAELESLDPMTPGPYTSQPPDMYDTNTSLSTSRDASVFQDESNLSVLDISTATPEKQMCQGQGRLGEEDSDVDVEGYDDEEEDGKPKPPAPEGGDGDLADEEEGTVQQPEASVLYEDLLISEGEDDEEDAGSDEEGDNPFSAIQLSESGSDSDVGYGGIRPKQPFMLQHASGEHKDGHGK
Assay [5] concerns the target T2, Bromodomain-containing protein 1 (Homo sapiens, UniProt O95696).
T2 sequence (O95696 whole entry): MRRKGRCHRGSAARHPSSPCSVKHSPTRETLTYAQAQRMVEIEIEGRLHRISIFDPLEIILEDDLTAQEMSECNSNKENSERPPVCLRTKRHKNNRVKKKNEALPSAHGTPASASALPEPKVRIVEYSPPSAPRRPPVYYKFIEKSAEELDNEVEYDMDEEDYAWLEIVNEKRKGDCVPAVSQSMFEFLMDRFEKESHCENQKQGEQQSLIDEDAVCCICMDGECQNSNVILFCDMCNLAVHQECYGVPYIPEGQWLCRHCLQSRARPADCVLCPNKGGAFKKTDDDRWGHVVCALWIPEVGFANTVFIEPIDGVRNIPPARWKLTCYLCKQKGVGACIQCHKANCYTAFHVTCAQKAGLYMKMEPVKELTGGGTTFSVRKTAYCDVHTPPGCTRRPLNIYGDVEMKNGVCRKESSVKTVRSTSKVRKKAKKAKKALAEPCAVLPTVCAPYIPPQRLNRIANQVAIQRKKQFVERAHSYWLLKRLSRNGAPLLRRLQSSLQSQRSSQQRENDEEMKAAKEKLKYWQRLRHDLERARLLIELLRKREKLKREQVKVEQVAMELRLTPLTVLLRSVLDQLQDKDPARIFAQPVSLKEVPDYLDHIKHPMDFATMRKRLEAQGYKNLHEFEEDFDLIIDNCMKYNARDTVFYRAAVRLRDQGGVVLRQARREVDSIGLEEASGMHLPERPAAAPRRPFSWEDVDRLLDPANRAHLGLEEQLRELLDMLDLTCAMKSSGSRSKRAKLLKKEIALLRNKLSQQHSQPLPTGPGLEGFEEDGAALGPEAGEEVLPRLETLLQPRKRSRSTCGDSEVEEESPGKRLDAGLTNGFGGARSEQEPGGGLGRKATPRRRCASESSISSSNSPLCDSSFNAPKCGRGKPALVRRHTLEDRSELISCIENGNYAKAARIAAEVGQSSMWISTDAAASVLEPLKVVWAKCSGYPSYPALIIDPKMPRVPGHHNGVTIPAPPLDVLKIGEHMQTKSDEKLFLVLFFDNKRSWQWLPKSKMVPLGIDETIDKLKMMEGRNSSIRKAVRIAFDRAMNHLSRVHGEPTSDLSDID
As to the kind of experiment: Binding affinity to human partial length BRD1 (E556 to A688 residues) expressed in bacterial expression system by BROMOscan assay.

The target of assay [6] is T1, Chromatin remodeling regulator CECR2. As to the kind of experiment: Binding affinity to human partial length CECR2 (P423 to D543 residues) expressed in bacterial expression system by BROMOscan assay.
For assay [7], the target named is T3, ATPase family AAA domain-containing protein 2 (Homo sapiens, UniProt Q6PL18).
T3 sequence (Q6PL18 whole entry): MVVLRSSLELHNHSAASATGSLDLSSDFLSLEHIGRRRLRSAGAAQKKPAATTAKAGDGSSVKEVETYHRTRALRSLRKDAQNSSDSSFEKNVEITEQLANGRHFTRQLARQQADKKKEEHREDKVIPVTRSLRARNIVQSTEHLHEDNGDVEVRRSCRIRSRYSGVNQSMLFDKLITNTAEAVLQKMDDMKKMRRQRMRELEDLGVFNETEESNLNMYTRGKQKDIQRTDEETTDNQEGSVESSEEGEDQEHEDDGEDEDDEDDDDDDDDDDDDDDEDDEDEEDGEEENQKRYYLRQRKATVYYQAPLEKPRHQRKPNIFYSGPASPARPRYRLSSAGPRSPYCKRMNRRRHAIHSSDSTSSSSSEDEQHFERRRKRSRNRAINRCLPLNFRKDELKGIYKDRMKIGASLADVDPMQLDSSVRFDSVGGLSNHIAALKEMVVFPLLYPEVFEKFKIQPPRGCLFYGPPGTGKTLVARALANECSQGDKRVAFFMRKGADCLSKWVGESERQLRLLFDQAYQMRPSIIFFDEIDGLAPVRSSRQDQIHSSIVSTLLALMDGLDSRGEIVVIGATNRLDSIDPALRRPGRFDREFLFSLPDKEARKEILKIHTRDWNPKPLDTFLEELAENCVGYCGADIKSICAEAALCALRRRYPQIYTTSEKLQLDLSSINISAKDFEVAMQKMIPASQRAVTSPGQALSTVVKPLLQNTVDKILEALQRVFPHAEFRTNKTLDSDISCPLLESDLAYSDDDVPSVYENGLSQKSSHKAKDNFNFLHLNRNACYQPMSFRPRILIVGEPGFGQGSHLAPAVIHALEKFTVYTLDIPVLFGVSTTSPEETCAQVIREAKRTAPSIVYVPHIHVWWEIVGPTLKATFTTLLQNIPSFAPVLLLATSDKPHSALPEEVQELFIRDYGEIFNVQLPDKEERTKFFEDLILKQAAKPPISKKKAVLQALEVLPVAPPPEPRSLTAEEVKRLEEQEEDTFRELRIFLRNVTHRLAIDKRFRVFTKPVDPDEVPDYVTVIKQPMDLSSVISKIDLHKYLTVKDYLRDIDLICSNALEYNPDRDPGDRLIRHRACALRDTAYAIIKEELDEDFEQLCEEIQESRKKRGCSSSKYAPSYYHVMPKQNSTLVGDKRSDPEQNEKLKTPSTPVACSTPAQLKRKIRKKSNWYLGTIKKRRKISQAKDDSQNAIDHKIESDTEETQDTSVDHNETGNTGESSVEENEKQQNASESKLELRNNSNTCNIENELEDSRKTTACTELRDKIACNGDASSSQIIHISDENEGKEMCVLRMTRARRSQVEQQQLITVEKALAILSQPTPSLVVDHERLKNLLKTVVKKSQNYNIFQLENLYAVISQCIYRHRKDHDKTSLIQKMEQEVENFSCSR
As to the kind of experiment: Displacement of Alexa Fluor 488-labeled ligand from FLAG-6His-Tev-fused ATAD2 (981 to 1121 residue) (unknown origin) measured after 30 mins by TR-FRET assay.

Assay [8] concerns the target T3, ATPase family AAA domain-containing protein 2. As to the kind of experiment: Binding affinity to human partial length ATAD2A (Q981 to R1108 residues) expressed in bacterial expression system by BROMOscan assay.

T1 sequence (Q9BXF3 whole entry, the tested form may be a part): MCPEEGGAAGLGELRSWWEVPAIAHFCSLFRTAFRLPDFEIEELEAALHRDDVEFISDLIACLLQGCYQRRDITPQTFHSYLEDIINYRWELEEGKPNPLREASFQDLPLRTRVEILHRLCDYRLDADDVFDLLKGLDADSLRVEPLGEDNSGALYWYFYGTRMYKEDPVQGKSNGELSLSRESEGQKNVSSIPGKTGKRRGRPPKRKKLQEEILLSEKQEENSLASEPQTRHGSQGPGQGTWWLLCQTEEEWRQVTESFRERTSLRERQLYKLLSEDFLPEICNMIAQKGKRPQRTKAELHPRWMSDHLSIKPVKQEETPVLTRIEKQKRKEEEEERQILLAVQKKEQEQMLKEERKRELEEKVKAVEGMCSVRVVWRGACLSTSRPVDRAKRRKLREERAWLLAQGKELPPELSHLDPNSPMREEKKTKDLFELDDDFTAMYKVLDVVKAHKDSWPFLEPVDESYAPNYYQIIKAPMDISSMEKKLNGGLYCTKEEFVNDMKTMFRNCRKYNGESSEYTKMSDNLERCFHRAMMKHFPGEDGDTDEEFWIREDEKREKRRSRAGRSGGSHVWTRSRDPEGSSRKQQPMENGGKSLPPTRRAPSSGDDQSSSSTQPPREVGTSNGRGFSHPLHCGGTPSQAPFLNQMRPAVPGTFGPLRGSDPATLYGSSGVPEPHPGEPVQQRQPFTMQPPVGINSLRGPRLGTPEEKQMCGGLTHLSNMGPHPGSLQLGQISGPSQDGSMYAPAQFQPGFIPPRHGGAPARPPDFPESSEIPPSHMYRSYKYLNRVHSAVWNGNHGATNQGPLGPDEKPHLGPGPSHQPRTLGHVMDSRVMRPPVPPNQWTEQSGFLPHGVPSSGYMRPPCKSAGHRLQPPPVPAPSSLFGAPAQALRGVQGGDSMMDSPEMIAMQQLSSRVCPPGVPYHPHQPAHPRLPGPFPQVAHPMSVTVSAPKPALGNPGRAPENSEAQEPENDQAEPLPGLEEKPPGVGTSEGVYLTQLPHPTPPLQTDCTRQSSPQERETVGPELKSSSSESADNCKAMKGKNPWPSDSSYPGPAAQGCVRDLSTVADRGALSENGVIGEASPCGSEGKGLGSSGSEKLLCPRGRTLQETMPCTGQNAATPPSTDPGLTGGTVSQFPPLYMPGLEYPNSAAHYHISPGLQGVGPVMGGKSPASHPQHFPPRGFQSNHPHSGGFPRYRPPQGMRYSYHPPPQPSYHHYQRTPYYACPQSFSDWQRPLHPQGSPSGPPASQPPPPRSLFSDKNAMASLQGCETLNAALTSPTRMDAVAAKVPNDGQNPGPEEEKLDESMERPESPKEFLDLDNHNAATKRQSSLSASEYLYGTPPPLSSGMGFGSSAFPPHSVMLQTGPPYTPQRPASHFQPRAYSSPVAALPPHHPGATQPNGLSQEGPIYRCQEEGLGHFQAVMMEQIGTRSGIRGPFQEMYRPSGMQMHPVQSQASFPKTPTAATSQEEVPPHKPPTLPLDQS

Take `C[C@H]1CCN(S(=O)(=O)c2cc(NC(=O)CN3C(=O)N[C@@](C)(C4CC4)C3=O)ccc2Br)C1`: the IC50 was 12600 nM in assay [1], 316 nM in assay [2] and 63.1 nM in assay [7]. Moreover, the Kd in assay [3] is 251 nM; in assay [4] it was 25.1 nM; in assay [5], 126 nM; in assay [6], 25.1 nM; in assay [8], 10 nM.

The term IC50 denotes the concentration that gives 50% inhibition. As a reminder, the Kd is the equilibrium constant for the complex coming apart. A high value points to a looser complex.
